biological target: T1, AM2 receptor (1321N1 cells transfected with CALCRL+RAMP3) (Homo sapiens, UniProt O60896+Q16602); test: AM2 receptor inhibition, LANCE cAMP agonist-antagonist competition assay; type: cell-based; conditions: inhibition of AM induced cAMP activation, read-out: AM2 D2 protocol: pIC50 (converted)
T1 construct: host or cells: 1321N1 cells
Method in brief: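 cAMP was quantified by LANCE TR-FRET after an EC50 challenge with adrenomedullin (15 min, room temperature) in CALCRL+RAMP3-transfected 1321N1 cells (2500/well) that had first been exposed to compound for 30 min. Buffer was pH 7.4 HBSS with HEPES and BSA. Forskolin defined 100% stimulation and vehicle 0%.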

T1 sequence (Q16602 23-461): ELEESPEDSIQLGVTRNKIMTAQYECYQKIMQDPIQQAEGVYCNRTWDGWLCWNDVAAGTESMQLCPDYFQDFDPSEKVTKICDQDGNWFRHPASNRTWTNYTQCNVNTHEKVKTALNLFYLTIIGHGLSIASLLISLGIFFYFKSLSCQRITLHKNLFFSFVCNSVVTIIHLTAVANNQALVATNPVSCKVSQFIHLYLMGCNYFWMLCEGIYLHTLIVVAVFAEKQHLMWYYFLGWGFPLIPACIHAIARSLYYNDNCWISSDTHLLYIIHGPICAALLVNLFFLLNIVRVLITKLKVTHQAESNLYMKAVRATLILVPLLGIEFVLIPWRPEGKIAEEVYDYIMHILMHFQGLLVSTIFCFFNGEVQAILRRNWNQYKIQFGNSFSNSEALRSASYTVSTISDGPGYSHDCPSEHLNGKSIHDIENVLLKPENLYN
T1 sequence (O60896 24-148): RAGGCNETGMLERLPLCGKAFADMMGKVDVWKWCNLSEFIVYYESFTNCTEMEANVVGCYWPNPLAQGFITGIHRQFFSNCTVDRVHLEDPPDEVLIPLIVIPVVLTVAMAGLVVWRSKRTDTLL

Compound	IC50
CNCc1ccccc1CN(CC(=O)Nc1ccc2c(c1)C[C@@]1(C2)C(=O)Nc2ncccc21)C(=O)C1(C)CCN(C(=O)N2CCC2)CC1 [Example 54, (R)-1-(Azetidine-1-carbonyl)-4-methyl-N-(2-((methylamino)methyl)benzyl)-N-(2-oxo-2-((2′-oxo-1,1′,2′,3-tetrahydrospiro[indene-2,3′-pyrrolo[2,3-b]pyridin]-5-yl)amino)ethyl)piperidine-4-carboxamide]	3.8 nM
CNCc1ccccc1CN(CC(=O)Nc1ccc2c(c1)C[C@@]1(C2)C(=O)Nc2ncccc21)C(=O)C1(C)CCN(C(=O)N2CCNCC2)CC1 [Example 56, (R)-4-Methyl-N-(2-((methylamino)methyl)benzyl)-N-(2-oxo-2-((2′-oxo-1,1′,2′,3-tetrahydrospiro[indene-2,3′-pyrrolo[2,3-b]pyridin]-5-yl)amino)ethyl)-1-(piperazine-1-carbonyl)piperidine-4-carboxamide]	13.2 nM
CNCc1ccccc1CN(CC(=O)Nc1ccc2c(c1)C[C@@]1(C2)C(=O)Nc2ncccc21)C(=O)C1(C)CCN(C(=O)N2CCCC2)CC1 [Example 57, (R)-4-Methyl-N-(2-((methylamino)methyl)benzyl)-N-(2-oxo-2-((2′-oxo-1,1′,2′,3-tetrahydrospiro[indene-2,3′-pyrrolo[2,3-b]pyridin]-5-yl)amino)ethyl)-1-(pyrrolidine-1-carbonyl)piperidine-4-carboxamide]	3.63 nM
CNCc1ccccc1CN(CC(=O)Nc1ccc2c(c1)C[C@@]1(C2)C(=O)Nc2ncccc21)C(=O)C1(C)CCN(C(C)=N)CC1 [Example 58, (R)-1-(1-Iminoethyl)-4-methyl-N-(2-((methylamino)methyl)benzyl)-N-(2-oxo-2-((2′-oxo-1,1′,2′,3-tetrahydrospiro[indene-2,3′-pyrrolo[2,3-b]pyridin]-5-yl)amino)ethyl)piperidine-4-carboxamide]	2.34 nM
CNCc1ccccc1CN(CC(=O)Nc1ccc2c(c1)C[C@@]1(C2)C(=O)Nc2ncccc21)C(=O)C1(C)CCN(c2cccnn2)CC1 [Example 59, (R)-4-Methyl-N-(2-((methylamino)methyl)benzyl)-N-(2-oxo-2-((2′-oxo-1,1′,2′,3-tetrahydrospiro[indene-2,3′-pyrrolo[2,3-b]pyridin]-5-yl)amino)ethyl)-1-(pyridazin-3-yl)piperidine-4-carboxamide]	49 nM
CNCc1ccccc1CN(CC(=O)Nc1ccc2c(c1)C[C@@]1(C2)C(=O)Nc2ncccc21)C(=O)C1(C)CCN(c2ncccn2)CC1 [Example 60]	38 nM
CNCc1ccccc1CN(CC(=O)Nc1ccc2c(c1)C[C@@]1(C2)C(=O)Nc2ncccc21)C(=O)C1(C)CCN(c2ccncn2)CC1 [Example 61]	2.14 nM
CNCc1ccccc1CN(CC(=O)Nc1ccc2c(c1)C[C@@]1(C2)C(=O)Nc2ncccc21)C(=O)C1(C)CCN(c2ccccn2)CC1 [Example 62]	77.6 nM
CNCc1ccccc1CN(CC(=O)Nc1ccc2c(c1)C[C@@]1(C2)C(=O)Nc2ncccc21)C(=O)C1(C)CCN(c2ccccc2)CC1 [Example 63, (R)-4-Methyl-N-(2-((methylamino)methyl)benzyl)-N-(2-oxo-2-((2′-oxo-1,1′,2′,3-tetrahydrospiro[indene-2,3′-pyrrolo[2,3-b]pyridin]-5-yl)amino)ethyl)-1-phenylpiperidine-4-carboxamide]	14.5 nM

Results, then the compound that gave them:

IC50	Compound
457 nM	CNCc1ccccc1CN(C(=O)C1(C)CCN(C(C)=O)CC1)[C@@H](C)C(=O)Nc1ccc2c(c1)C[C@@]1(C2)C(=O)Nc2ncccc21 [Example 66, 1-Acetyl-4-methyl-N-(2-((methylamino)methyl)benzyl)-N—((S)-1-oxo-1-(((R)-2′-oxo-1,1′,2′,3-tetrahydrospiro[indene-2,3′-pyrrolo[2,3-b]pyridin]-5-yl)amino)propan-2-yl)piperidine-4-carboxamide]
0.575 nM	CCC1(C(=O)N(CC(=O)Nc2ccc3c(c2)C[C@@]2(C3)C(=O)Nc3ncccc32)Cc2ccccc2CNC)CCNCC1 [Example 67, (R)-4-Ethyl-N-(2-((methylamino)methyl)benzyl)-N-(2-oxo-2-((2′-oxo-1,1′,2′,3-tetrahydrospiro[indene-2,3′-pyrrolo[2,3-b]pyridin]-5-yl)amino)ethyl)piperidine-4-carboxamide]
1.41 nM	CCC1(C(=O)N(CC(=O)Nc2ccc3c(c2)C[C@@]2(C3)C(=O)Nc3ncccc32)Cc2ccccc2CNC)CCN(C(C)=O)CC1 [Example 68, (R)-1-Acetyl-4-ethyl-N-(2-((methylamino)methyl)benzyl)-N-(2-oxo-2-((2′-oxo-1,1′,2′,3-tetrahydrospiro[indene-2,3′-pyrrolo[2,3-b]pyridin]-5-yl)amino)ethyl)piperidine-4-carboxamide]
30.2 nM	CCC1(C(=O)N(CC(=O)Nc2ccc3c(c2)C[C@@]2(C3)C(=O)Nc3ncccc32)Cc2ccccc2CNC)CCN(C(=O)C(C)(C)C)CC1 [Example 69, 1-(2,2-Dimethylpropanoyl)-4-ethyl-N-[[2-(methylaminomethyl)phenyl]methyl]-N-[2-oxo-2-[[(3R)-2-oxospiro[1H-pyrrolo[2,3-b]pyridine-3,2′-indane]-5′-yl]amino]ethyl]piperidine-4-carboxamide]
2.24 nM	CCC1(C(=O)N(CC(=O)Nc2ccc3c(c2)C[C@@]2(C3)C(=O)Nc3ncccc32)Cc2ccccc2CNC)CCN(C(=O)c2ccn(C)n2)CC1 [Example 70, (R)-4-Ethyl-1-(1-methyl-1H-pyrazole-3-carbonyl)-N-(2-((methylamino)methyl)benzyl)-N-(2-oxo-2-((2′-oxo-1,1′,2′,3-tetrahydrospiro[indene-2,3′-pyrrolo[2,3-b]pyridin]-5-yl)amino)ethyl)piperidine-4-carboxamide]
8.51 nM	CCC1(C(=O)N(CC(=O)Nc2ccc3c(c2)C[C@@]2(C3)C(=O)Nc3ncccc32)Cc2ccccc2CNC)CCN(C(=O)c2cc(C)n[nH]2)CC1 [Example 71, (R)-4-Ethyl-1-(3-methyl-1H-pyrazole-5-carbonyl)-N-(2-((methylamino)methyl)benzyl)-N-(2-oxo-2-((2′-oxo-1,1′,2′,3-tetrahydrospiro[indene-2,3′-pyrrolo[2,3-b]pyridin]-5-yl)amino)ethyl)piperidine-4-carboxamide]
8.71 nM	CCC1(C(=O)N(CC(=O)Nc2ccc3c(c2)C[C@@]2(C3)C(=O)Nc3ncccc32)Cc2ccccc2CNC)CCN(C(=O)C2CC2)CC1 [Example 72, (R)-1-(Cyclopropanecarbonyl)-4-ethyl-N-(2-((methylamino)methyl)benzyl)-N-(2-oxo-2-((2′-oxo-1,1′,2′,3-tetrahydrospiro[indene-2,3′-pyrrolo[2,3-b]pyridin]-5-yl)amino)ethyl)piperidine-4-carboxamide]
14.1 nM	CCC1(C(=O)N(CC(=O)Nc2ccc3c(c2)C[C@@]2(C3)C(=O)Nc3ncccc32)Cc2ccccc2CNC)CCN(C(=O)C(C)C)CC1 [Example 73, (R)-4-Ethyl-1-isobutyryl-N-(2-((methylamino)methyl)benzyl)-N-(2-oxo-2-((2′-oxo-1,1′,2′,3-tetrahydrospiro[indene-2,3′-pyrrolo[2,3-b]pyridin]-5-yl)amino)ethyl)piperidine-4-carboxamide]
8.71 nM	CCC1(C(=O)N(CC(=O)Nc2ccc3c(c2)C[C@@]2(C3)C(=O)Nc3ncccc32)Cc2ccccc2CNC)CCN(C(=O)COCCOCCOC)CC1 [Example 74, (R)-4-Ethyl-1-(2-(2-(2-methoxyethoxy)ethoxy)acetyl)-N-(2-((methylamino)methyl)benzyl)-N-(2-oxo-2-((2′-oxo-1,1′,2′,3-tetrahydrospiro[indene-2,3′-pyrrolo[2,3-b]pyridin]-5-yl)amino)ethyl)piperidine-4-carboxamide]
5.75 nM	CCC1(C(=O)N(CC(=O)Nc2ccc3c(c2)C[C@@]2(C3)C(=O)Nc3ncccc32)Cc2ccccc2CNC)CCN(C(=O)C2CCCC2)CC1 [Example 75, (R)-1-(Cyclopentanecarbonyl)-4-ethyl-N-(2-((methylamino)methyl)benzyl)-N-(2-oxo-2-((2′-oxo-1,1′,2′,3-tetrahydrospiro[indene-2,3′-pyrrolo[2,3-b]pyridin]-5-yl)amino)ethyl)piperidine-4-carboxamide]
37.2 nM	CCC1(C(=O)N(CC(=O)Nc2ccc3c(c2)C[C@@]2(C3)C(=O)Nc3ncccc32)Cc2ccccc2CNC)CCN(C(=O)c2ccc(F)cn2)CC1 [Example 76, (R)-4-Ethyl-1-(5-fluoropicolinoyl)-N-(2-((methylamino)methyl)benzyl)-N-(2-oxo-2-((2′-oxo-1,1′,2′,3-tetrahydrospiro[indene-2,3′-pyrrolo[2,3-b]pyridin]-5-yl)amino)ethyl)piperidine-4-carboxamide]
24 nM	CCC1(C(=O)N(CC(=O)Nc2ccc3c(c2)C[C@@]2(C3)C(=O)Nc3ncccc32)Cc2ccccc2CNC)CCN(C(=O)[C@@H](C)NC)CC1 [Example 77, 4-Ethyl-N-(2-((methylamino)methyl)benzyl)-1-((R)-2-(methylamino)propanoyl)-N-(2-oxo-2-(((R)-2′-oxo-1,1′,2′,3-tetrahydrospiro[indene-2,3′-pyrrolo[2,3-b]pyridin]-5-yl)amino)ethyl)piperidine-4-carboxamide]
112 nM	CCC1(C(=O)N(CC(=O)Nc2ccc3c(c2)C[C@@]2(C3)C(=O)Nc3ncccc32)Cc2ccccc2CNC)CCN(C(=O)c2cccc(C(F)(F)F)n2)CC1 [Example 78, (R)-4-Ethyl-N-(2-((methylamino)methyl)benzyl)-N-(2-oxo-2-((2′-oxo-1,1′,2′,3-tetrahydrospiro[indene-2,3′-pyrrolo[2,3-b]pyridin]-5-yl)amino)ethyl)-1-(6-(trifluoromethyl)picolinoyl)piperidine-4-carboxamide]
7.41 nM	CCC1(C(=O)N(CC(=O)Nc2ccc3c(c2)C[C@@]2(C3)C(=O)Nc3ncccc32)Cc2ccccc2CNC)CCN(C(=O)[C@@H](N)c2ccccc2)CC1 [Example 79, 1-((S)-2-Amino-2-phenylacetyl)-4-ethyl-N-(2-((methylamino)methyl)benzyl)-N-(2-oxo-2-(((R)-2′-oxo-1,1′,2′,3-tetrahydrospiro[indene-2,3′-pyrrolo[2,3-b]pyridin]-5-yl)amino)ethyl)piperidine-4-carboxamide]
